Experimental data published in patent US12161741B2, “Skin gel preparation for external use” (Shiseido Company, Ltd., priority 2018, dated 2024).

Test: Solubility of the di-chain cationic surfactant (distearyldimonium chloride) in oils
Details: for Dissolution of the di-chain cationic surfactant in the oil (text summary of Table 1): 1 g in 100 g oil, 24 hours at ambient temperature; for Evaluation Result (state of the solution of distearyldimonium chloride in the oil): 1 g distearyldimonium chloride mixed and heated to dissolve in 100 g of oil, at rest 24 hours at ambient temperature

Row | Compound | Dissolution of the di-chain cationic surfactant in the oil (text summary of Table 1) | Evaluation Result (state of the solution of distearyldimonium chloride in the oil)
1 | CCCCCCCCCCC(CO)CCCCCCCC (centres unmarked) [Octyldodecanol] | homogeneously dissolved | 
2 | CC(C)CCCCCCCCCCCCCCCO [Isostearyl alcohol] | homogeneously dissolved | 
3 | Glyceryl diisostearate | homogeneously dissolved | ○
4 | CCCCC(CC)COCC(O)CO (centres unmarked) [Ethylhexylglycerin] | homogeneously dissolved | ○
5 | CC(C)CCCCCCCCCCCCCCCOC(=O)CC(O)C(=O)OCCCCCCCCCCCCCCCC(C)C (centres unmarked) [Diisostearyl malate] | homogeneously dissolved | ○
